One assay addresses T1, Human Calpain 2/NS1 (Homo sapiens, UniProt P17655).
T1 sequence (P17655 1-700): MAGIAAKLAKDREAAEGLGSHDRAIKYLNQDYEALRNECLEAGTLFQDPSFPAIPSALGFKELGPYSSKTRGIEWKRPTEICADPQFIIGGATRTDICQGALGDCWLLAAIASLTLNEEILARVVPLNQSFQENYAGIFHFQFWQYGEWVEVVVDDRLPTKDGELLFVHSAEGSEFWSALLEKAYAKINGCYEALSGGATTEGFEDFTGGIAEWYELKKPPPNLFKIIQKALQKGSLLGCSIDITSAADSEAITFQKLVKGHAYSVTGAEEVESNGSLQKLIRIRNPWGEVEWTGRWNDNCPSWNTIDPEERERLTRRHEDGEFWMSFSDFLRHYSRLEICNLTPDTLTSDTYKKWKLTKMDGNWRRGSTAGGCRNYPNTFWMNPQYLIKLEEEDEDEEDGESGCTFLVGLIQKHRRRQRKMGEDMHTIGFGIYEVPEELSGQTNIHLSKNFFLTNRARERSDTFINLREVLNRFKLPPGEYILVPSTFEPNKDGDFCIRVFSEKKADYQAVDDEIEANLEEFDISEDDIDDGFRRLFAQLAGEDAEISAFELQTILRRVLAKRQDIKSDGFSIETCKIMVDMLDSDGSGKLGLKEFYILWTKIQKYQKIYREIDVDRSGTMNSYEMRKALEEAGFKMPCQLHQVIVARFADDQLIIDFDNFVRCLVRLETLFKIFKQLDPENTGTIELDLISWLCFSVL
T1 sequence (P04632 1-268 partner): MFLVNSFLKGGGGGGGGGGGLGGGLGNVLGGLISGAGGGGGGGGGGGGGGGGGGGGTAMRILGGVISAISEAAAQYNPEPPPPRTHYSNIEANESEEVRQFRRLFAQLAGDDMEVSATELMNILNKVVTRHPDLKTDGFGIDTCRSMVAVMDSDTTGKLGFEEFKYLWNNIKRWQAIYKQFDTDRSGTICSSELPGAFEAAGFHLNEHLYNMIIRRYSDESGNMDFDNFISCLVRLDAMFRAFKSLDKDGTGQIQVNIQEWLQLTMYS
As to the kind of experiment: Biochemical inhibition of calpain 2, continuous fluorescence (FRET substrate) assay. Conditions: mean; read-out: Human Calpain 2/NS1 1C50 [sic] (nM)_MEAN. The procedure: (§1) Calpain 1, 2, and 9 activity and inhibition thereof are assessed by means of a continuous fluorescence assay. The SensoLyte 520 Calpain substrate (Anaspec Inc) is optimized for detecting calpain activity. This substrate contains a novel internally quenched 5-FAM/QXL™ 520 FRET pair. Calpains 1, 2, and 9 cleave the FRET substrate into two separate fragments resulting in an increase of 5-FAM fluorescence that is proportional to calpain activity.
(§2) Assays are typically setup in black 384-well plates using automated liquid handling as follows. Calpain assay base buffer typically contains 50 mM Tris, pH 7.5, 100 mM NaCl and 1 mM DTT. Inhibitors are serially diluted in DMSO and used to setup 2× mixtures with calpains in the aforementioned buffer. After incubation at ambient temperature (25 C), the reaction is initiated by adding a 2× mix of the fluorescent peptide substrate and CaCl2 (required for in-situ calpain activation) in the same buffer. Reaction progress curve data are typically collected for 10 min using excitation/emission wavelengths of 490 nm/520 nm on SpectraMax i3x or the FLIPR-Tetra plate readers (Molecular Devices Inc). Reaction rates were calculated from progress curve slopes typically over 1-5 min. Dose response curves (rate vs. log inhibitor concentration) were typically fit to a 4-parameter logistic function to extract IC50 values.

Assay [1] deals with calpain activity in SH-SY5Y cells. As to the kind of experiment: SH-SY5Y cellular calpain activity, Suc-LLVY-AMC fluorescence assay. It is filed as cell-based. Conditions: Suc-LLVY-AMC substrate. The method, then:
Calpain activity in SH-SY5Y cells and inhibition thereof were assessed by means of a homogeneous, fluorescence assay that uses the cell-permeable and pro-fluorescent calpain substrate Suc-LLVY-AMC (Sigma-Aldrich Inc). Upon intracellular calpain cleavage of Suc-LLVY-AMC, fluorescent amino-methyl-coumarin (AMC) is released into the media resulting in a continuous increase in fluorescence signal that is proportional to intra-cellular calpain activity.
Assays were typically setup by seeding SH-SY5Y cells in black 384-well plates at 40 k/per well in RPMI-1640 containing 1% serum followed by 37 C overnight incubation. Next morning, cells were pre-incubated for 30 min with serially diluted compounds followed by addition of 100 uM of Suc-LLVY-AMC substrate. The continuous increase in AMC fluorescence is monitored using a FLIPR, Tetra plate reader (Molecular Devices Inc) and slopes measured to report calpain activity. Dose response curves (slopes vs. log inhibitor concentration) were typically fit to a 4-parameter logistic function to extract IC50 values.

The target of another assay is T2, Human Calpain 1/NS1 (Homo sapiens, UniProt P07384).
T2 sequence (P07384 1-714): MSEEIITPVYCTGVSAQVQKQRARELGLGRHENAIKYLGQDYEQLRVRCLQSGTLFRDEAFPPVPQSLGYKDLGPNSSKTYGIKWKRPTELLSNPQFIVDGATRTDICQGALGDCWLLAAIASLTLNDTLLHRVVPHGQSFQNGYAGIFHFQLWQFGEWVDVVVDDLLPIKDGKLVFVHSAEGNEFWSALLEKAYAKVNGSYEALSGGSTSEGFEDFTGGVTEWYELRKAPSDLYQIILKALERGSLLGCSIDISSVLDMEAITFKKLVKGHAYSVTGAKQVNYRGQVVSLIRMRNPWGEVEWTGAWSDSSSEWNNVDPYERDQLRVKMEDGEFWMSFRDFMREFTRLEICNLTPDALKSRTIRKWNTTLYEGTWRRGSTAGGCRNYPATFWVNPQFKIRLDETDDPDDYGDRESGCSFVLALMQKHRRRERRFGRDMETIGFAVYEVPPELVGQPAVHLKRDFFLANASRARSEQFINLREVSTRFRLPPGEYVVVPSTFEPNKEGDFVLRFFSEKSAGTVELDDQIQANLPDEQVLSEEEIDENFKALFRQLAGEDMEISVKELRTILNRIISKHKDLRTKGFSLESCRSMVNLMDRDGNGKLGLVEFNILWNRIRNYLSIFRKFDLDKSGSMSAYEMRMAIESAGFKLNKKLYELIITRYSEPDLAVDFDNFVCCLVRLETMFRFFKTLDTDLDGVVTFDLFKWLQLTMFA
T2 sequence (P04632 1-268 partner): T1 sequence (P04632 1-268 partner)
As to the kind of experiment: Biochemical inhibition of calpain 1, continuous fluorescence (FRET substrate) assay. Conditions: mean; read-out: Human Calpain 1/NS1 IC50 (nM)_MEAN. The method, then:
as §1, §2

For another assay, the target named is T3, Human Calpain 9/NS1 (Homo sapiens, UniProt O14815).
T3 sequence (O14815 1-690): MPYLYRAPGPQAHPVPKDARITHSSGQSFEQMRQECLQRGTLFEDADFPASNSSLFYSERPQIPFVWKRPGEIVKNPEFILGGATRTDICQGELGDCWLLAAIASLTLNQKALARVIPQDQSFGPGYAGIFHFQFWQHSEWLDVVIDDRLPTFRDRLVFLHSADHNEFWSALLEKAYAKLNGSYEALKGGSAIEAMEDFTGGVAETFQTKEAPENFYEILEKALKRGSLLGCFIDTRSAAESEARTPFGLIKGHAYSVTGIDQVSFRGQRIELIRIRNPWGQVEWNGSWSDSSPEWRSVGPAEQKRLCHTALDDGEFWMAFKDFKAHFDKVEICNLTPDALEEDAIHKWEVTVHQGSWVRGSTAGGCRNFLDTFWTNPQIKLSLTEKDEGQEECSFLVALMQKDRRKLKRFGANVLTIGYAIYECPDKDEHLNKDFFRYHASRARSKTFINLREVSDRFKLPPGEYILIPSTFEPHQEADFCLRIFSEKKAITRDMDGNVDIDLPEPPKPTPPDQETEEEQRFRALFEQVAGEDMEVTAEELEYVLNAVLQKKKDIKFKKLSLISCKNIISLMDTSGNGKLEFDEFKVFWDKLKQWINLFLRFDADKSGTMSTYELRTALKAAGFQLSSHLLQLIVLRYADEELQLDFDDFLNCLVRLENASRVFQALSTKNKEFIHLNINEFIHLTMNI
T3 sequence (P04632 1-268 partner): T1 sequence (P04632 1-268 partner)
The experiment in a line: Biochemical inhibition of calpain 9, continuous fluorescence (FRET substrate) assay. Conditions: mean; read-out: Human Calpain 9/NS1 IC50 (nM)_MEAN. The method, then: as §1, §2

pIC50: −log10 of the molar value. Where only a bound is given, the exact number is not on record here.

Regarding `O=C(NC1CC1)C(=O)[C@H](Cc1ccccc1)NC(=O)c1c(Cl)cccc1Cl` [Compound 2, (S)-2,6-DICHLORO-N-(4-(CYCLOPROPYLAMINO)-3,4-DIOXO-1-PHENYLBUTAN-2-YL)BENZAMIDE], the IC50 at Human Calpain 2/NS1, at Human Calpain 1/NS1 and on Human Calpain 9/NS1 was under 3000 nM throughout. Moreover, the negative logarithm of the IC50 (pIC50) in assay [1] is over 5.00.
In the case of `NC(=O)C(=O)[C@H](Cc1ccccc1)NC(=O)c1ccc(F)cc1` [Compound 4, (S)—N-(4-AMINO-3,4-DIOXO-1-PHENYLBUTAN-2-YL)-4-FLUOROBENZAMIDE], the IC50 at Human Calpain 2/NS1 is 3000 to 10000 nM; on Human Calpain 1/NS1, over 10000 nM; on Human Calpain 9/NS1, 3000 to 10000 nM. Further, in assay [1], the pIC50 is 4.60 to 5.00.
With `NC(=O)C(=O)C(Cc1ccccc1)NC(=O)N1c2ccccc2Oc2ccccc21` (stereo not shown) [Compound 6, N-(4-AMINO-3,4-DIOXO-1-PHENYLBUTAN-2-YL)-10H-PHENOXAZINE-10-CARBOXAMIDE], the IC50 on Human Calpain 2/NS1 was under 3000 nM; on Human Calpain 1/NS1 it was under 3000 nM; on Human Calpain 9/NS1 it was over 10000 nM. Moreover, the negative-log IC50 (pIC50) in assay [1] was under 4.60.
`NC(=O)C(=O)C(Cc1ccccc1)NC(=O)n1c2ccccc2c2ccccc21` (stereo not shown) [Compound 8, N-(4-AMINO-3,4-DIOXO-1-PHENYLBUTAN-2-YL)-9H-CARBAZOLE-9-CARBOXAMIDE]: the IC50 at Human Calpain 2/NS1 is over 10000 nM; on Human Calpain 1/NS1 it was 3000 to 10000 nM; at Human Calpain 9/NS1, over 10000 nM. Besides, in assay [1], the pIC50 is under 4.60.
`NC(=O)C(=O)C(Cc1ccccc1)NC(=O)C1c2ccccc2-c2ccccc21` (stereo not shown) [Compound 10, N-(4-AMINO-3,4-DIOXO-1-PHENYLBUTAN-2-YL)-9H-FLUORENE-9-CARBOXAMIDE]: the IC50 at Human Calpain 2/NS1 was 3000 to 10000 nM; on Human Calpain 1/NS1, over 10000 nM; at Human Calpain 9/NS1, over 10000 nM. Further, in assay [1], the pIC50 was 4.60 to 5.00.
Consider `COc1ccc(Cl)cc1C(=O)N[C@@H](Cc1ccccc1)C(=O)C(N)=O` [Compound 17, (S)—N-(4-AMINO-3,4-DIOXO-1-PHENYLBUTAN-2-YL)-5-CHLORO-2-METHOXYBENZAMIDE], for which the IC50 at Human Calpain 2/NS1, at Human Calpain 1/NS1 and on Human Calpain 9/NS1 was under 3000 nM in each case. Besides, in assay [1], the pIC50 is over 5.00.
As for `COc1cccc(OC)c1C(=O)N[C@@H](Cc1ccccc1)C(=O)C(N)=O` [Compound 18, (S)—N-(4-AMINO-3,4-DIOXO-1-PHENYLBUTAN-2-YL)-2,6-DIMETHOXYBENZAMIDE], the results for the IC50 on Human Calpain 2/NS1, at Human Calpain 1/NS1 and on Human Calpain 9/NS1 were over 10000 nM, over 10000 nM and 3000 to 10000 nM, respectively. Also, the pIC50 in assay [1] is under 4.60.
`NC(=O)C(=O)[C@H](Cc1ccccc1)NC(=O)c1c(Cl)cccc1C(F)(F)F` [Compound 19, (S)—N-(4-AMINO-3,4-DIOXO-1-PHENYLBUTAN-2-YL)-2-CHLORO-6-(TRIFLUOROMETHYL)BENZAMIDE]: the IC50 at Human Calpain 2/NS1, at Human Calpain 1/NS1 and on Human Calpain 9/NS1 was under 3000 nM in each case. For the same molecule, in assay [1], the pIC50 is under 4.60.
Consider `NC(=O)C(=O)[C@H](Cc1ccccc1)NC(=O)c1c(C(F)(F)F)cccc1C(F)(F)F` [Compound 20, (S)—N-(4-AMINO-3,4-DIOXO-1-PHENYLBUTAN-2-YL)-2,6-BIS(TRIFLUOROMETHYL)BENZAMIDE], for which the IC50 at Human Calpain 2/NS1 is 3000 to 10000 nM; on Human Calpain 1/NS1, under 3000 nM; at Human Calpain 9/NS1 it was under 3000 nM. In addition, the pIC50 in assay [1] was 4.60 to 5.00.
Regarding `NC(=O)C(=O)[C@H](Cc1ccccc1)NC(=O)c1c(Cl)cccc1-c1ccccc1` [Compound 21, (S)—N-(4-AMINO-3,4-DIOXO-1-PHENYLBUTAN-2-YL)-3-CHLORO-[1,1′-BIPHENYL]-2-CARBOXAMIDE], the IC50 on Human Calpain 2/NS1, on Human Calpain 1/NS1 and at Human Calpain 9/NS1 was under 3000 nM each time. Also, the negative-log IC50 (pIC50) in assay [1] was under 4.60.
As for `NC(=O)C(=O)[C@H](Cc1ccccc1)NC(=O)c1ccc(-c2ccccc2)cc1` [Compound 23, (S)—N-(4-AMINO-3,4-DIOXO-1-PHENYLBUTAN-2-YL)-[1,1′-BIPHENYL]-4-CARBOXAMIDE], the IC50 at Human Calpain 2/NS1 was over 10000 nM; on Human Calpain 1/NS1, under 3000 nM; at Human Calpain 9/NS1 it was over 10000 nM. For the same molecule, the pIC50 in assay [1] was over 5.00.
As to `NC(=O)C(=O)C(Cc1ccccc1)NC(=O)c1cccc(F)c1` (stereo not shown) [Compound 25, N-(4-AMINO-3,4-DIOXO-1-PHENYLBUTAN-2-YL)-3-FLUOROBENZAMIDE], the IC50 at Human Calpain 2/NS1, at Human Calpain 1/NS1 and at Human Calpain 9/NS1 was under 3000 nM throughout. For the same molecule, the negative logarithm of the IC50 (pIC50) in assay [1] is over 5.00.
For the molecule `Cc1cccc(C(=O)NC(Cc2ccccc2)C(=O)C(N)=O)c1C` (stereo not shown) [Compound 26, N-(4-AMINO-3,4-DIOXO-1-PHENYLBUTAN-2-YL)-2,3-DIMETHYLBENZAMIDE], the IC50 on Human Calpain 2/NS1, on Human Calpain 1/NS1 and at Human Calpain 9/NS1 was under 3000 nM throughout. Besides, in assay [1], the pIC50 was over 5.00.

A word on the pIC50: it is the negative decadic logarithm of the IC50, by convention in mol/L.

Values taken from US20210347727A1 (BLADE THERAPEUTICS, INC., priority 2017, published 2021).
